# Results from US5508310A, “Immunopotentiatory agents and physiologically acceptable salts thereof” (Burroughs Wellcome Co., priority 1992, dated 1996).
# Where “and” joins values, the source holds several entries; their conditions need not be identical. Equal entries are not always repeated.
# Experiments:
# [1] = tested on: mononuclear cell fraction of blood from healthy donors immunised with tetanus toxoid; assay type: cell-based, human (healthy donors)
# [2] = tested on: mouse colon adenocarcinoma 38 (MCA38); assay: Antitumour activity: outgrowth of subcutaneously implanted mouse colon adenocarcinoma 38 (MCA38) in C57BL/6 mice; assay type: in vivo, mouse (C57BL/6); conditions: for Tumour weight on day 24 after tumour implantation (individual mice): intraperitoneally, every alternate day, 9 doses, individual animal values; for Mean % red. (tumour weight) / Median % red. (tumour weight): vs controls (group A); for Mean tumour weight on day 24: controls mean 0.635; for Median tumour weight on day 24: controls median 0.636
# Procedure: The activity of the tucaresol was evaluated against the outgrowth of subcutaneously implanted mouse colon adenocarcinoma 38 (MCA38) in female C57BL/6 mice, using the following protocol:
# Day 0 Fifteen, female and 16 male C57BL/6 mice each im-
# planted subcutaneously with one 2 mm cube of tumour.
# Mice randomized and divided into three groups -
# Group A, 5 females and 5 males, Group B, 5 females
# and 5 males, Group C, 5 females and 6 males.
# Day 5 Test groups B and C each dosed with 589C80 (1 mg or
# to 0.2 mg per mouse dissolved in 0.2 ml PBS,
# intraperitoneally) once every alternate day (total of 9
# doses). Control mice (group A) given PBS alone.
# All mice killed, tumours excised and weighed. Mean and
# median tumour weight in test group compared with
# Tucaresol was dissolved in PBS by dropwise addition of 1M KOH to pH 10.0 followed by dropwise addition of conc. HCL to return pH to neutral.
# Dosing schedule where drug was given on alternate days was chosen in order to extend the dosing period over 14 rather than 7 days. By so doing tumours were exposed to the drug from day 13 right up until […] i.e. 2 days before the experiment was terminated.
# Pneumocystis carinii = conditions: AIDS patients; Wofsy 1986; cited from earlier work
compound,measurement,setting,value
"O=CCCc1ccccc1 [Compound 5, 3-Phenylproponion-aldhyde]",IC50 Ratio with 4-Hydroxyphenylacetaldehyde,[1],40
O=Cc1c(O)cccc1OCc1ccc(C(=O)O)cc1 [Tucaresol],Tumour weight on day 24 after tumour implantation (individual mice),"[2]; Group B, 1.0 mg/mouse",0.740 grammes and 0.695 grammes and 0.358 grammes and 0.303 grammes and 0.298 grammes and 0.090 grammes and 0.079 grammes and 0.038 grammes and 0.022 grammes
same,Mean % red. (tumour weight),"[2]; Group B, 1.0 mg/mouse",54.2%
same,Median % red. (tumour weight),"[2]; Group B, 1.0 mg/mouse",53.15%
same,Mean tumour weight on day 24,"[2]; Group B, 1.0 mg/mouse, S.D. 0.272",0.291 grammes
same,Median tumour weight on day 24,"[2]; Group B, 1.0 mg/mouse",0.298 grammes
same,Tumour weight on day 24 after tumour implantation (individual mice),"[2]; Group C, 0.2 mg/mouse",0.802 grammes and 0.272 grammes and 0.230 grammes and 0.197 grammes and 0.181 grammes and 0.126 grammes and 0.085 grammes and 0.029 grammes and 0.019 grammes and 0.006 grammes
same,Mean % red. (tumour weight),"[2]; Group C, 0.2 mg/mouse",70.4%
same,Median % red. (tumour weight),"[2]; Group C, 0.2 mg/mouse",80.19%
same,Mean tumour weight on day 24,"[2]; Group C, 0.2 mg/mouse, S.D. 0.222",0.188 grammes
same,Median tumour weight on day 24,"[2]; Group C, 0.2 mg/mouse",0.126 grammes
same,Inhibition of outgrowth of subcutaneously implanted MCA38,"[2]; syngeneic C57BL/6 mice, result in words",inhibited the outgrowth
N=C(N)c1ccc(OCCCCCOc2ccc(C(=N)N)cc2)cc1 [pentamidine],Effectiveness in Pneumocystis carinii pneumonia,Pneumocystis carinii,50-70%
same,Incidence of adverse reactions,Pneumocystis carinii,around 50%
trimethoprim-sulphamethoxazole,Effectiveness in Pneumocystis carinii pneumonia,Pneumocystis carinii,50-70%
